According to patent US7473683B2, “Nonpolar thymidine analogs” (The Board of Trustees of the Leland Stanford Junior …, priority 2005, dated 2009):

Key:
[1] = tested on: self-complementary strands (5′-XCGCGCG); test: dangling end thermal denaturation studies (base stacking) with self-complementary strands; assay type: physicochemical; conditions: for ΔG°37 (van't Hoff) / ΔH° (van't Hoff) / ΔS° (van't Hoff) / ΔΔG° stacking per base / Tm / ΔG°37 (fits) / ΔTm: dangling residue X in 5′-XCGCGCG; for Tm: 5.0 μM DNA strand, 1M NaCl, 10 mM phosphate buffer (pH 7.0), 0.1 mM EDTA, 280 nm; for ΔG°37 (fits): curve fits; for ΔTm: versus duplex with no dangling residue
Method: (§1) Thermal Denaturation Studies. After the samples were prepared in melting buffer (1M NaCl, 10 mM phosphate buffer (pH 7.0) with 0.1 mM EDTA), they were heated to 95° C. and allowed to slowly cool at a rate of 1° C./min to 5° C. The melting studies were carried out in Teflon-stoppered 1 cm path length quartz cells on a Varian Cary 1 UV-vis spectophotometer equipped with thermoprogrammer. Absorbance was monitored at 280 nm for stacking and at 260 nm for base pairing. […] The data were analyzed by the melt curve processing program, MeltWin v. 3.0. Melting temperatures (Tm) were determined by computer-fit of the first derivative of absorbance with respect to 1/T. Uncertainty in Tm is estimated at ±0.5° C. based on repetitions of experiments. Free-energy values were derived by two methods: (1) computer-fitting the denaturation data with an algorithm employing linear sloping baselines, using the two-state approximation for melting. Fits were excellent, with χ^−2 values of 10^−6 or better. (2) Van't Hoff thermodynamic parameters were derived from linear plots of 1/Tm vs In[CT] by measuring Tm as a function of concentration.
Sequence Design. We incorporated all five phosphoramidites into three new sequence contexts each for further study of pairing and stacking properties. The first is a self-complementary sequence designed to form a hexamer duplex, with the nonnatural base analogue overhanging (dangling) at the 5′ ends (Table 2). This same sequence context has been used previously in several studies of DNA base stacking. The second and third contexts comprise a pair of 12mer sequences that form duplexes with well-behaved two-state behavior. One strand is pyrimidine-rich, while the other is purine-rich; we substituted each analogue at a central position of each strand to test two widely varied sequence contexts for pairing effects.
Base Stacking. DNA base stacking stability has been correlated with the size of compounds when mono-, bi-, tri-, and tetra-cyclic base analogues were compared. To test this with the present series, which varies in size by a smaller amount, we examined the short self-complementary oligonucleotides by thermal denaturation experiments. The self-complementary duplexes contained the modified nucleosides as a 5′ overhanging base.

[2] = tested on: DNA Pol I (Klenow fragment, exo-); test: steady-state kinetics of single nucleotide insertions, thymidine analogues in the template; assay type: biochemical, E. coli; conditions: for Km / Vmax: 37° C.; for Vmax: 10 mM MgCl2, pH 7.5, normalized to lowest enzyme concentration; for rel. efficiency: relative to insertion of dATP opposite T
Method: In vitro steady-state kinetics. As polymerase substrates we used 28 mer/23 mer template-primer duplexes having the sequence (5′-ACT GXT CTCCCTATAGTGAGTCGTATTA [SEQ ID NO:1])·(5′-TAATACGACTCACTATAGGGAGA [SEQ ID NO:2]). Kinetics were measured at 37° C. in a buffer containing 10 mM Mg^2+. The primer was 5′ end-labeled and was extended by the polymerase in the presence of a single dNTP species over varied concentration and time. Products of single nucleotide insertions were resolved from unreacted primer by 20% denaturing gel electrophoresis, and were quantitated by autoradiography. Details of the kinetics experiments are given in the Supporting Data.
We chose DNA polymerase I (Klenow fragment, exonuclease-deficient) as an ideal candidate for initial study, as it is enzymatically well-characterized among replicative enzymes, and yet is relatively small and acts as a single subunit. We carried out kinetics studies of single nucleotide insertions in the steady state, using a gel electrophoresis-based assay.
Data for single nucleotide insertion kinetics in the steady-state. The enzyme was the Klenow fragment of DNA pol I from E. coli (exonuclease deficient). Methods are as described above.

[3] = tested on: normal and bypass (SOS-induced) polymerases in E. coli; test: bacterial replication assay: bypass efficiency and fidelity of analogs in single-stranded M13 vector passaged through E. coli; assay type: cell-based; conditions: for single-base deletions: diminished when bypass polymerases were induced; for difference between the match and mismatch efficiency, increase in cells expressing induced bypass polymerases: SOS-induced bypass polymerases
Text: Bacterial replication assay. The assay for bypass efficiency fidelity is briefly described in the text.
To ascertain the influence of sub-Angstrom size increases on the template coding properties of the T analogs in vivo, we ligated oligonucleotides containing each analog into a single-stranded M13 vector, which were then passaged through E. coli and scored for bypass efficiency and mutagenesis (fidelity) as described. We chose E. coli deficient in AlkB to eliminate the possibility of metabolization of the H analog, which was subsequently found to have no influence on the results when compared with AlkB-proficient cells. Bypass experiments shown in FIG. 7 were performed in a competitive manner, and efficiencies were evaluated by PCR-based quantitation of successfully replicated progeny DNA. SOS-induction of bypass polymerases by prior irradiation of E. coli with ultraviolet light increased trans-analog synthesis approximately 2-fold for all thymine analogs. […] It is noteworthy that the difference between the match and mismatch efficiency increased in cells expressing induced bypass polymerases: L (0.2), B (8.0), I (17.4), implying higher fidelity for the larger isosteres for bypass polymerases, which may contain larger or looser active sites.

[4] = tested on: 12-base pair duplex 5′-CTTTTCXTTCTT / 3′-GAAAAGXAAGAA; test: thermal denaturation, base pairing near the center of a 12-base pair duplex; assay type: physicochemical; conditions: pyrimidine- or purine-rich strand, compared to T
Method: as §1
Sequence Design. We incorporated all five phosphoramidites into three new sequence contexts each for further study of pairing and stacking properties. […]

[5] = insertion of dATP opposite template base
[6] = insertion of dCTP opposite template base
[7] = insertion of dGTP opposite template base
[8] = insertion of dTTP opposite template base

Compound	ΔG°37 (van't Hoff) [1] [kcal/mol]	ΔH° (van't Hoff) [1] [kcal/mol]	ΔS° (van't Hoff) [1] [cal/K · mol]	ΔΔG° stacking per base [1] [kcal/mol]	Tm [1] [°C]	ΔG°37 (fits) [1] [kcal/mol]	ΔTm [1] [°C]	Km [2, 5] [µM]	Vmax [2, 5] [% · m in^−1]	rel. efficiency [2, 5]	Km [2, 6] [µM]	Vmax [2, 6] [% · m in^−1]	rel. efficiency [2, 6]	Km [2, 7] [µM]	Vmax [2, 7] [% · m in^−1]	rel. efficiency [2, 7]	Km [2, 8] [µM]	Vmax [2, 8] [% · m in^−1]	rel. efficiency [2, 8]	difference between the match and mismatch efficiency, increase in cells expressing induced bypass polymerases ([3]; E. coli)	further results
2,4-diHydrogentoluene	-9.7 ± 0.1	-55.4 ± 2.0	−147 ± 6	0.95	49.7	-9.7 ± 0.0	11.1	20 ± 2	0.90 ± 0.18	3.5 × 10^−3	100 ± 60	0.031 ± 0.006	2.4 × 10^−5	600 ± 210	0.025 ± 0.007	3.2 × 10^−6	61 ± 37	0.062 ± 0.022	7.7 × 10^−5	–	stabilization of the duplex by 5′ overhanging base (stacking) ([1]; compared with natural thymidine in the same position): least stabilizing of the series; single-base deletions ([3]; E. coli): evident
Cc1ccc(Br)cc1Br [B, 2,4-dibromotoluene]	-10.8 ± 0.1	-62.0 ± 2.1	−165 ± 7	1.50	54.3	-10.2 ± 0.0	15.7	21 ± 5	12 ± 1	4.4 × 10^−2	79 ± 33	0.038 ± 0.005	3.7 × 10^−5	220 ± 100	0.023 ± 0.005	7.7 × 10^−6	37 ± 12	0.20 ± 0.03	4.2 × 10^−4	8.0	–
Cc1ccc(I)cc1I [I, 2,4-diiodotoluene]	-10.4 ± 0.2	-55.7 ± 4.4	−146 ± 14	1.30	53.8	-10.2 ± 0.1	15.2	26 ± 11	1.3 ± 0.2	3.8 × 10^−3	20 ± 8	0.036 ± 0.001	1.4 × 10^−4	58 ± 18	0.017 ± 0.001	2.2 × 10^−5	48 ± 39	0.085 ± 0.037	1.4 × 10^−4	17.4	single-base deletions ([3]; E. coli): evident; pairing stability opposite natural bases [4]: least destabilizing
Cc1ccc(Cl)cc1Cl [L, 2,4-dichlorotoluene]	-10.0 ± 0.1	-52.7 ± 1.2	−138 ± 4	1.10	52.3	-10.1 ± 0.0	13.7	3.3 ± 2.8	27 ± 5	6.3 × 10^−1	25 ± 13	0.021 ± 0.003	6.5 × 10^−5	190 ± 90	0.029 ± 0.007	1.2 × 10^−5	18 ± 18	0.13 ± 0.04	5.5 × 10^−4	0.2	replication bypass efficiency ([3]; E. coli, normal and bypass polymerases, competitive, PCR-based quantitation of progeny DNA): maximum bypass; replication fidelity in E. coli ([3]; normal and bypass polymerases): maximal in vivo fidelity
difluorotoluene [reference compound]	-10.1 ± 0.0	-54.5 ± 0.9	−143 ± 3	1.15	52.4	-10.1 ± 0.0	13.8	9.4 ± 2.9	24 ± 3	2.0 × 10^−1	33 ± 11	0.071 ± 0.011	1.7 × 10^−4	36 ± 12	0.0071 ± 0.0008	1.5 × 10^−5	22 ± 13	0.12 ± 0.03	4.2 × 10^−4	–	–
